Data published in patent publication US20100255020A1, “METHOD FOR INDUCING CYTOTOXIC T-CELLS, CYTOTOXIC T-CELL INDUCERS, AND PHARMACEUTICAL COMPOSITIONS AND VACCINES EMPLOYING THEM” (NEC CORPORATION, priority 2007, published 2010).
Where no end group is shown, it is not given here.

Tested on: IFN-γ-producing cells in peripheral blood mononuclear cells
Test: ELISPOT of patients' PBMCs before and after W10 peptide immunization
Type: cell-based, human
Procedure: In order to compare the cytotoxicity of peripheral blood mononuclear cells between that before administration of 5×10̂8 cells of whole-cell pertussis vaccine and 3 mg of W10 peptide to that after administering it three times, peripheral blood mononuclear cells were cultured with the immunizing peptide under conditions described later, and the number of cells that produced IFN-γ in a peptide-dependent manner were counted. The cells used for the ELISPOT assay are also described later.
The results are shown in FIG. 6 (response of PBMC of patients having HLA-A*2402), FIG. 7 (response of patients having HLA-A*0201), and FIG. 8 (response of patients having HLA-A*0206). The abscissa denotes the peptide that was bound to antigen presenting cells (in the figures, referred to as APCs (antigen presenting cells)), and the ordinate denotes the number of INF-γ-producing cells per 1×10̂4 cells. The response of peripheral blood mononuclear cells one week after three-time immunizations is shown with closed bars, and the response of peripheral blood mononuclear cells collected immediately before immunization is shown with open bars. […]
Peripheral blood mononuclear cells (PBMC) were stimulated in vitro once a week for a total of three times and then, the number of cells that produced IFN-γ in response to the antigen peptide were counted. […]

For ALLPAVPSL [W10], which “Number of W10-reactive IFN-γ-producing T-cells” value (patient KB07-006, after 1 mg W10 peptide for 3 weeks) is on record?
Its value is “increased”.

And the “Increase of cells producing IFN-γ in response to W10 peptide after immunization” value (patients with HLA-A*2402, HLA-A*0201 or HLA-A*0206, 3 mg W10 + Wc x3)?
The value was “often observed”.
